Key:
Myzus persicae = Myzus persicae spray test (MYZUPE), Chinese cabbage leaf-disks; format: in vivo
Experimental: (§1) For all examples efficiencies of the compositions comprising at least one BCA and at least one specific insecticide has been determined by the “Colby-formula”: The expected efficacy of a given combination of two compounds is calculated as follows (see Colby, S. R., “Calculating Synergistic and antagonistic Responses of Herbicide Combinations”, Weeds 15, pp. 20-22, 1967):
(§2) If • X is the efficacy expressed in % mortality of the untreated control for test compound A at a concentration of m ppm respectively m g/ha, • Y is the efficacy expressed in % mortality of the untreated control for test compound B at a concentration of n ppm respectively n g/ha, • E is the efficacy expressed in % mortality of the untreated control using the mixture of A and B at m and n ppm respectively m and n g/ha, • then is E=X+Y−(X×Y/100)
(§3) If the observed insecticidal efficacy of the combination is higher than the one calculated as “E”, then the combination of the two compounds is more than additive, i.e., there is a synergistic effect.
(§4) To produce a suitable preparation of active compound, 1 part by weight of active compound is mixed with the stated amount of solvent and emulsifier, and the concentrate is diluted with emulsifier-containing water to the desired concentration. To produce a suitable preparation of a spore suspension the spores are diluted with emulsifier-containing water to the desired concentration. Chinese cabbage (Brassica pekinensis) leaf-disks infected with all instars of the green peach aphid (Myzus persicae), are sprayed with a preparation of the active ingredient of the desired concentration.
After the specified period of time, mortality in % is determined. 100% means all aphids have been killed; 0% means none of the aphids have been killed. The mortality values determined thus are recalculated using the Colby-formula (see above).

Tetranychus urticae = Tetranychus urticae spray test, OP-resistant, French beans; format: in vivo
Experimental: as §1, §2, §3
as §4, with “French beans (Phaseolus vulgaris) which are heavily infested” for “Chinese cabbage (Brassica pekinensis) leaf-disks infected”, “stages” for “instars”, “two spotted spidermite (Tetranychus urticae),” for “green peach aphid (Myzus persicae),”
After the specified period of time, mortality in % is determined. 100% means all spider mites have been killed and 0% means none of the spider mites have been killed. The mortality values determined thus are recalculated using the Colby-formula (see above).

SMILES | mortality at 0.8 g/ha (Myzus persicae; Myzus persicae, 144 h, 0.8 g/ha, after 6 d, read-out: Efficacy in % after 6d (mortality)) | mortality at 4 g/ha (Myzus persicae; Myzus persicae, 144 h, 4 g/ha, after 6 d, read-out: Efficacy in % after 6d (mortality)) | mortality at 20 g/ha (Tetranychus urticae; Tetranychus urticae, 48 h, 20 g ai/ha, after 2 d, read-out: Efficacy in % after 2d (mortality)) | mortality at 0.8 g/ha (Tetranychus urticae; Tetranychus urticae, 144 h, 0.8 g ai/ha, after 6 d, read-out: Efficacy in % after 6d (mortality)) | Efficacy in % after 6d (mortality) (Myzus persicae; 20 g/ha) | Efficacy in % after 6d (mortality) (Tetranychus urticae; 0.8 g ai/ha, after 6 d) | Efficacy in % after 2d (mortality) (Tetranychus urticae; 4 g ai/ha, after 2 d)
CCOC(=O)OC1=C(c2cc(C)ccc2C)C(=O)N[C@]12CC[C@@H](OC)CC2 [Spirotetramate (1223), Spirotetramat] | 0% | 70% | 0% | 0% | – | – | –
Cc1cc(C)c(C2=C(OC(=O)CC(C)(C)C)C3(CCCC3)OC2=O)c(C)c1 [Spiromesifen (1222), Spiromesifen] | – | – | – | – | 70% | 0% | 0%

Reference: patent US9737078B2, “Compositions comprising a biological control agent and an insecticide” (priority 2012, dated 2017)
